Assay results: article PMC8350020, “Stepwise binding of inhibitors to human cytochrome P450 17A1 and rapid kinetics of inhibition of androgen biosynthesis” (The Journal of Biological Chemistry, 2021)
Read-outs that look alike come from different tables or passages of the source.

What was measured:
human P450 17A1 [1] = target: T1, human P450 17A1 (Homo sapiens, UniProt P05093); assay: IC50 determination, progesterone 17α-hydroxylation (17α-OH progesterone formation), reconstituted P450 17A1/POR/b5; type: biochemical; details: for IC50: IC50 (95% CI limits), progesterone 17α-hydroxylation, steady-state, 0.02 μM P450 17A1, 5 μM progesterone, 37 °C; for Ki: IC50 = Ki [1 + (S/Km)] for competitive inhibition, Km from Ref. 37, read-out: Predicted Ki, progesterone 17α-hydroxylation
T1 sequence (P05093 24-508 limits assumed): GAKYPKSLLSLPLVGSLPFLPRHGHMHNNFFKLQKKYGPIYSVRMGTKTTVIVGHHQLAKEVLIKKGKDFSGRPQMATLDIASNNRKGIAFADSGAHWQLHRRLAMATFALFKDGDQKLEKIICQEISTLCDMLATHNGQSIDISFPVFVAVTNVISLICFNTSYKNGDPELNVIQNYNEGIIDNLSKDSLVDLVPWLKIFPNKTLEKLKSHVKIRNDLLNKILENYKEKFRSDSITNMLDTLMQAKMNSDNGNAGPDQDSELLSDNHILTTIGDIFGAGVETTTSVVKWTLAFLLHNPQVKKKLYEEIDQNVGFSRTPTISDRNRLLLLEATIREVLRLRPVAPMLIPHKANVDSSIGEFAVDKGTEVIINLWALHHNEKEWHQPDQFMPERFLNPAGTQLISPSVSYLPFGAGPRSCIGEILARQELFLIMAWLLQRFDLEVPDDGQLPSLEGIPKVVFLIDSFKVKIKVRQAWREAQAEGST
Description: (§1) A 0.5 ml reaction was prepared in most cases by the reconstitution of P450 17A1 (0.02 μM), POR (0.5 μM), and b5 (0.5 μM) with freshly sonicated L-α-dilauroyl-sn-glycero-3-phosphocholine (30 μM). The mixture incubated on ice for 10 min, followed by the addition of potassium phosphate buffer (to a final concentration of 50 mM), substrate (5 μM progesterone or 1.5 μM 17α-OH pregnenolone ([37])), and water. Stock progesterone was prepared in CH3OH and was diluted to a final concentration of 5 μM (0.5% CH3OH, v/v). […] Reactions (in duplicate) were preincubated for 5 min at 37 °C with shaking before being initiated with an NADPH-generating system composed of 0.5 mM NADP^+, two units of yeast glucose 6-phosphate dehydrogenase ml^−1, and 10 mM glucose 6-phosphate ([56]). The inhibitor abiraterone was added immediately prior to the 5-min preincubation stage because of the rapid onset of inhibition. Reactions (5 min) were quenched by immersion in an ice bath, with the addition of CH2Cl2 (2.0 ml), and were centrifuged (10^3g, 10 min) to separate layers. The organic (bottom) phases were removed (1.6 ml) and transferred into clean vials, and the solvent was removed under a stream of nitrogen. Reactions were resuspended in a CH3CN/sodium acetate mixture (25 mM, pH 3.7) (1:1, v/v) and were transferred to vials for UPLC analysis. […] Substrate and product were detected using a Waters Acuity photodiode array system at 240 nm. Data were processed using the MassLynx software, and percent conversion of substrate to product was calculated. The data were normalized to the uninhibited reaction, which was set at 100% activity.

human P450 17A1 [2] = target: T1, human P450 17A1; assay: IC50 determination, 17α-OH pregnenolone lyase activity (DHEA formation), reconstituted P450 17A1/POR/b5; type: biochemical; details: for Ki: IC50 = Ki [1 + (S/Km)] for competitive inhibition, Km from Ref. 37, read-out: Predicted Ki, 17α-OH pregnenolone lyase; for Ratio (17-hydroxylation/lyase) of IC50: This work
Description: In the case of catalytic assays, the products of each reaction were redissolved in a solution of CF3CO2H (7 mM, prepared as a 0.1% v/v solution in C2H5OH) and dansyl hydrazine (10 mM, prepared in CH3OH) in amber glass vials (sealed and capped) and were allowed to react overnight (16 h) in the dark at room temperature (23 °C). The reaction was quenched with acetone (50 mM) followed by incubation at room temperature for 30 min. NaOH was added to 100 mM, and the products of the reactions were extracted into CH2Cl2 (1.0 ml), of which 0.8 ml of the organic (lower) layers was transferred to fresh amber vials and dried under a stream of nitrogen. The residues were redissolved in a mixture of a 0.1% HCO2H solution (aqueous) and CH3CN (0.1 ml; 1:1 dilution, v/v) and transferred to ultra performance LC (UPLC) vials for analysis. […] Data were processed using MassLynx software (Waters) (Fig. S5).
as §1
Experimental conditions for the lyase reaction were identical to the hydroxylation reaction with the following exceptions: 17α-OH pregnenolone (1.5 μM) was used as the substrate, and following extraction, the product of the reaction was derivatized with dansyl hydrazine as described previously.

human P450 17A1 [3] = details: read-out: IC50, progesterone 17α-hydroxylation, cited from earlier work
human P450 17A1 [4] = details: cited from earlier work; for IC50: read-out: IC50, 17α-OH pregnenolone to DHEA (lyase)
human P450 17A1 [5] = target: T1, human P450 17A1; assay: Rates of onset of inhibition, pre-steady-state rapid chemical quench; type: biochemical
Description: In the control experiment, ES is not inhibited (no I present). […] Both progesterone 17α-hydroxylation (Fig. 10) and 17α-OH pregnenolone lyase activity (Fig. 11) were measured without and with all five inhibitors.
Reactions were performed using a KinTek RQF-3 rapid quench apparatus (KinTek) with the reaction loop set at position 7 and the temperature at 37 °C. The RQF-3 is a rapid mixing device that initiates a reaction by forcing equal volumes of two mixing syringes into a reaction loop. After pausing for the indicated incubation time, the reaction is then quenched and expelled from the apparatus. The reaction mixture (containing enzyme and substrate [in CH3OH, 1% (v/v)]) was initiated with an equal volume (19 μl) of NADPH solution (2 mM), effectively halving the initial concentration of all reaction components. When appropriate, inhibitor (in CH3OH) was added to the NADPH solution (in CH3OH), taking care to keep the total CH3OH composition of the final reaction to 1% (v/v). The substrates progesterone (5 μM) and 17α-OH pregnenolone (1.5 μM) were allowed to react for different lengths of time (0.1–5 and 2–60 s, respectively) prior to quenching with 160 μl of 1 M HCl. Five replicates of each time point were collected into vials to increase the detection sensitivity of the respective product at the shorter time points.

human P450 17A1 [6] = target: T2, human P450 17A1 (Homo sapiens, UniProt P05093); assay: Inhibition as a function of preincubation time with abiraterone, CYP17A1R Bactosomes; type: biochemical; details: 50 nM abiraterone, 10 nM P450 17A1 Bactosomes
T2 sequence (P05093 1-508): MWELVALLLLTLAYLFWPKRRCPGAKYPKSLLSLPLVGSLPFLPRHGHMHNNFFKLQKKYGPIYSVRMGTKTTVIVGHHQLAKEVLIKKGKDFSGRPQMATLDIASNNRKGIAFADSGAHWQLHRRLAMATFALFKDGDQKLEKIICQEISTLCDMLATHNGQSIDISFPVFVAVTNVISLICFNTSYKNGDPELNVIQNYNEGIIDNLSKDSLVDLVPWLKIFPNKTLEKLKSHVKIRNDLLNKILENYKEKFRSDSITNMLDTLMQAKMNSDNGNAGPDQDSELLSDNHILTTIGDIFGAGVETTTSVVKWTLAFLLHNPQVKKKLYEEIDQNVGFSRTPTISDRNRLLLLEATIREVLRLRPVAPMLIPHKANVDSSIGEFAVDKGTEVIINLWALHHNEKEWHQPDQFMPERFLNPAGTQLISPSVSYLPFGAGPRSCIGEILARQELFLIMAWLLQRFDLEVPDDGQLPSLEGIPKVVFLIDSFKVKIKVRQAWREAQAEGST
Description: These experiments utilized bacterial membranes (CYP17A1R Bactosomes) as the source of P450 and POR. Experiments were done with 10 nM P450 17A1 in reaction volumes of 0.5 ml, with 100 nM b5 added. Abiraterone was added to 50 nM, and then, the reactions were initiated by the addition of an NADPH-generating system supplemented with either 20 μM progesterone (A) or 17α-OH pregnenolone (B) at the indicated times and proceeded for 5 min (at 37 and 23 °C, respectively).
Steady-state kinetic inhibition assays performed with Cypex CYP17A1R Bactosomes followed largely the same procedure with the following exception: the enzymatic system was prepared by preincubating (23 °C) P450 17A1 (CYP17A1R Bactosomes; 10 nM P450), b5 (100 nM), and potassium phosphate buffer (50 mM, pH 7.4) with abiraterone (50 nM) for varying lengths of time (0.25–30 min). Reactions (5 min) were then initiated with the NADPH-generating system described previously and subjected to the same procedure.

human P450 17A1 [7] = target: T1, human P450 17A1; assay: KinTek Explorer modeling of kinetics of inhibition of progesterone 17α-hydroxylation; type: biochemical; details: fit of Figure 10E data; E 2 μM, S 5 μM progesterone, I 1 μM; read-out: Kd as a competitive inhibitor (value giving adequate model fits)
Description: The results of the progesterone 17α-hydroxylation abiraterone inhibition experiment in Figure 10E were analyzed further using KinTek Explorer software (KinTek; Fig. 13).
The lines were fit to the model shown, with the indicated rate and dissociation constants. The enzyme concentration (E) was 2 μM, substrate concentration (S) was 5 μM, and inhibitor concentration (I, abiraterone) was 1 μM. Fitting was done with KinTek Explorer.

human P450 17A1 [8] = target: T1, human P450 17A1
P450 17A1 = details: cited from earlier work
human P450 17A1 [9] = target: T1, human P450 17A1; details: 250 nM P450 17A1 and 250 nM inhibitor, 23 °C
[10] = IC50 (95% CI limits), 17α-OH pregnenolone lyase, steady-state, 0.02 μM P450 17A1, 1.5 μM 17α-OH pregnenolone, 37 °C
[11] = range of other studies, ref Other studies (2) Petrunak et al. 2017

Compound	IC50 (human P450 17A1 [1]) [nM]	Ki (human P450 17A1 [1]) [nM]	IC50 (human P450 17A1 [2]; [10]) [nM]	Ki (human P450 17A1 [2]) [nM]	Ratio (17-hydroxylation/lyase) of IC50 (human P450 17A1 [2])	IC50 (human P450 17A1 [3]; ref (2) Petrunak et al. 2017) [nM]	Ratio (17-hydroxylation/lyase) of IC50 (human P450 17A1 [4]; ref (2) Petrunak et al. 2017)	IC50 (human P450 17A1 [4]; ref (2) Petrunak et al. 2017) [nM]	further results
CC(C)[C@](O)(c1ccc2cc(OC(F)F)c(OC(F)F)cc2c1)c1c[nH]nn1 [Seviteronel, (S)-Seviteronel]	3500	1370	3430	2810	1.0	1170	2.7	430	IC50 (human P450 17A1 [2]; This work (Fig. 3, Table 1), read-out: IC50, 17α-OH pregnenolone to DHEA (lyase)): 3400 nM; IC50 (human P450 17A1 [3]; ref (4) Rafferty et al. 2014): 690 nM; Ratio (17-hydroxylation/lyase) of IC50 (human P450 17A1 [4]; ref (4) Rafferty et al. 2014): 10; IC50 (human P450 17A1 [4]; ref (4) Rafferty et al. 2014): 69 nM
C[C@]12CC[C@H](O)CC1=CC[C@@H]1[C@@H]2CC[C@]2(C)C(n3cnc4ccccc43)=CC[C@@H]12 [Galaterone]						130	1.3	100	
C[C@]12CC[C@H](O)CC1=CC[C@@H]1[C@@H]2CC[C@]2(C)C(c3cccnc3)=CC[C@@H]12 [Abiraterone, 17-(3-pyridyl)androsta-5,16-dien-3β-ol]	3.2	1.3	4.2	3.4	0.76	76	2.1	36	Time within which inhibition occurred (human P450 17A1 [5]; Figs. 10, 11 and 13): less than 1 s; Earliest time points at which inhibition was noted (human P450 17A1 [5]; progesterone 17α-hydroxylation, 1 μM abiraterone, 2 μM P450): ≤ 100 ms; Inhibition of 17α-OH pregnenolone lyase versus preincubation time (human P450 17A1 [6]; 100 nM b5, 20 μM 17α-OH pregnenolone, 23 °C): almost completely inhibited after 15 s; Inhibition of progesterone 17α-hydroxylation versus preincubation time (human P450 17A1 [6]; 100 nM b5, 20 μM progesterone, 37 °C): almost completely inhibited after 15 s; Kd (human P450 17A1 [7]): 1 nM; Further spectral changes after formation of final complex (human P450 17A1 [8]; 2 μM P450 17A1 and 2 μM abiraterone, spectra 1 to 57 min after mixing): no further spectral changes were observed over a period of 1 h; Ratio (17-hydroxylation/lyase) of IC50 (human P450 17A1 [4]; [11]): 0.1-1.4; IC50 (human P450 17A1 [4]; [11]): 2.9 to 800 nM; koff (P450 17A1): 0.000155 s⁻¹; t1/2 (from koff) (P450 17A1): 5 h
CC(C)(C)NC(=O)[C@@H]1CN(Cc2cccnc2)CCN1C[C@@H](O)C[C@@H](Cc1ccccc1)C(=O)N[C@H]1c2ccccc2C[C@H]1O [indinavir]									Spectral interaction with P450 17A1 (human P450 17A1 [8]): did not show strong enough spectral interaction
CC(C)[C@@](O)(c1ccc2cc(OC(F)F)c(OC(F)F)cc2c1)c1cn[nH]n1 [(R)-Seviteronel]						11300	2.3	5000	
CCC(C)n1ncn(-c2ccc(N3CCN(c4ccc(OCC5COC(Cn6cncn6)(c6ccc(Cl)cc6Cl)O5)cc4)CC3)cc2)c1=O (stereo not shown) [itraconazole]									Spectral interaction with P450 17A1 (human P450 17A1 [8]): did not show strong enough spectral interaction
Clc1ccccc1C(c1ccccc1)(c1ccccc1)n1ccnc1 [Clotrimazole]	60	23	99	81	0.61				Time required for completion of spectral changes on binding (human P450 17A1 [8]; 2 μM P450 17A1 mixed with inhibitor, 23 °C): ~30 s; Lag in recovery of 17α-OH pregnenolone lyase from 1:1 inhibitor complex (human P450 17A1 [9]; 20 μM 17α-OH pregnenolone): Any suggestion of lags is no greater than in the uninhibited reactions; Lag in recovery of progesterone 17α-hydroxylation from 1:1 inhibitor complex (human P450 17A1 [9]; 20 μM progesterone): Any suggestion of lags is no greater than in the uninhibited reactions; IC50 (human P450 17A1 [3]; ref (5) Munkboel et al. 2019): 180 nM; Ratio (17-hydroxylation/lyase) of IC50 (human P450 17A1 [4]; ref (5) Munkboel et al. 2019): 3.3; IC50 (human P450 17A1 [4]; ref (5) Munkboel et al. 2019): 56 nM
